Reference: PubChem BioAssay AID328 (DTP/NCI, 2004)
Values joined by “and” are separate entries in the source; they are usually repeats but may differ in a detail not shown here. Equal entries are not always repeated. Toxic doses and inconclusive results are not listed. The calls were made as follows: active = survival T/C of 150% or more; inactive = T/C below 125% in these data.

Test system: BDF1 mice, P388 leukemia ip, median survival T/C
Test: NCI In Vivo Anticancer Drug Screen. Data for tumor model P388 Leukemia (intraperitoneal) in B6D2F1 (BDF1) mice
Conditions: endpoint: median survival time, higher = longer survival
Procedure, shortened: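 Reported as T/C, where T is the survival measurement in dosed animals and C the same measurement in vehicle controls.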

[1] = dose: 100.0 mg/kg/injection, schedule: Q01DX009 (ip), vehicle: saline
[2] = dose: 100.0 mg/kg/injection, schedule: Q04DX003 (ip), vehicle: saline
[3] = dose: 200.0 mg/kg/injection, schedule: Q04DX003 (ip), vehicle: saline
[4] = dose: 400.0 mg/kg/injection, schedule: Q04DX003 (ip), vehicle: saline
[5] = dose: 25.0 mg/kg/injection, schedule: Q01DX009 (ip), vehicle: Klucel (hydroxypropylcellulose) (HPC)
[6] = dose: 50.0 mg/kg/injection, schedule: Q01DX009 (ip), vehicle: Klucel (hydroxypropylcellulose) (HPC)
[7] = dose: 100.0 mg/kg/injection, schedule: Q01DX009 (ip), vehicle: Klucel (hydroxypropylcellulose) (HPC)
[8] = dose: 100.0 mg/kg/injection, schedule: Q01DX009 (ip), vehicle: saline with Tween-80
[9] = dose: 200.0 mg/kg/injection, schedule: Q01DX009 (ip), vehicle: saline with Tween-80
[10] = dose: 400.0 mg/kg/injection, schedule: Q01DX009 (ip), vehicle: saline with Tween-80
[11] = dose: 50.0 mg/kg/injection, schedule: Q01DX009 (ip), vehicle: saline with Tween-80

Measured: T/C

C(=Nc1ccc(-c2ccccc2)cc1)c1ccccc1
inactive: dose: 100.0 mg/kg/injection, schedule: Q04DX003 (ip), vehicle: saline with Tween-80 100 % of control | dose: 200.0 mg/kg/injection, schedule: Q04DX003 (ip), vehicle: saline with Tween-80 100 % of control | dose: 400.0 mg/kg/injection, schedule: Q04DX003 (ip), vehicle: saline with Tween-80 100 % of control

ClC1=C(Cl)C2(Cl)C3C4CC(C5OC45)C3C1(Cl)C2(Cl)Cl (centres undefined)
inactive: dose: 3.13 mg/kg/injection, schedule: Q01DX009 (ip), vehicle: suspension in saline 96 % of control

NC1(CO)COC(c2ccccc2)OC1 (centres undefined)
inactive: dose: 25.0 mg/kg/injection, schedule: Q01DX009 (ip), vehicle: saline 100 % of control and 105 % of control | dose: 50.0 mg/kg/injection, schedule: Q01DX009 (ip), vehicle: saline 105 % of control and 118 % of control | dose: 50.0 mg/kg/injection, schedule: Q04DX003 (ip), vehicle: saline 97 % of control and 98 % of control and 109 % of control | [1] 100 % of control and 107 % of control | [2] 100 % of control and 102 % of control

CCOC(=O)CCN1CCOCC1
inactive: [1] 100 % of control | [2] 95 % of control | dose: 200.0 mg/kg/injection, schedule: Q01DX009 (ip), vehicle: saline 100 % of control | [3] 100 % of control | dose: 400.0 mg/kg/injection, schedule: Q01DX009 (ip), vehicle: saline 100 % of control | [4] 108 % of control

CCCCCCCCCCCC[N+](C)(C)C (tested in a mixture with another compound)
inactive: dose: 9.2 mg/kg/injection, schedule: Q01DX009 (ip), vehicle: saline 107 % of control

CC1=CC(=O)N(O)CCCC(N)C(=O)OCCC(C)=CC(=O)N(O)CCCC(N)C(=O)OCCC(C)=CC(=O)N(O)CCCC(N)C(=O)OCC1 (centres undefined)
inactive: dose: 3.0 mg/kg/injection, schedule: Q01DX009 (ip), vehicle: Klucel (hydroxypropylcellulose) (HPC) 89 % of control | dose: 6.0 mg/kg/injection, schedule: Q01DX009 (ip), vehicle: Klucel (hydroxypropylcellulose) (HPC) 87 % of control | dose: 12.0 mg/kg/injection, schedule: Q01DX009 (ip), vehicle: Klucel (hydroxypropylcellulose) (HPC) 87 % of control | dose: 24.0 mg/kg/injection, schedule: Q01DX009 (ip), vehicle: Klucel (hydroxypropylcellulose) (HPC) 92 % of control

Clc1nc(Cl)nc(-c2cccn2-c2ccccc2)n1
inactive: [5] 100 % of control | [6] 100 % of control | [7] 104 % of control | dose: 150.0 mg/kg/injection, schedule: Q01DX009 (ip), vehicle: Klucel (hydroxypropylcellulose) (HPC) 105 % of control | dose: 225.0 mg/kg/injection, schedule: Q01DX009 (ip), vehicle: Klucel (hydroxypropylcellulose) (HPC) 95 % of control

C#CC1(OCC(O)CCl)CCCCC1 (centres undefined)
inactive: [8] 116 % of control | [2] 110 % of control | [9] 104 % of control | [3] 120 % of control | [4] 100 % of control

C=C1C(=O)OC2CC(C)C3CCC(=O)C3(C)C(O)C12 (centres undefined)
inactive: dose: 4.0 mg/kg/injection, schedule: Q01DX009 (ip), vehicle: Klucel (hydroxypropylcellulose) (HPC) 90 % of control | dose: 8.0 mg/kg/injection, schedule: Q01DX009 (ip), vehicle: Klucel (hydroxypropylcellulose) (HPC) 95 % of control | dose: 16.0 mg/kg/injection, schedule: Q01DX009 (ip), vehicle: Klucel (hydroxypropylcellulose) (HPC) 104 % of control | dose: 32.0 mg/kg/injection, schedule: Q01DX009 (ip), vehicle: Klucel (hydroxypropylcellulose) (HPC) 111 % of control

O=[n+]1c2ccccc2n([O-])c2ccccc21.[Cl][Ni][Cl]
inactive: dose: 6.25 mg/kg/injection, schedule: Q04DX003 (ip), vehicle: saline with Tween-80 105 % of control | dose: 12.5 mg/kg/injection, schedule: Q04DX003 (ip), vehicle: saline with Tween-80 112 % of control

Clc1cccc(-c2nc3ccccc3c3ccccc23)c1
inactive: [8] 105 % of control | [9] 120 % of control | [10] 95 % of control

ClC[P+](c1ccccc1)(c1ccccc1)c1ccccc1
inactive: dose: 3.0 mg/kg/injection, schedule: Q01DX009 (ip), vehicle: saline 120 % of control | dose: 6.0 mg/kg/injection, schedule: Q01DX009 (ip), vehicle: saline 116 % of control | dose: 12.5 mg/kg/injection, schedule: Q04DX003 (ip), vehicle: saline 100 % of control

CN1CCC2(CC1)c1ccccc1-c1ccccc12
inactive: [11] 109 % of control | [8] 100 % of control

O=C1NC(=O)C2(CCCCC2)N1
inactive: [5] 91 % of control | dose: 25.0 mg/kg/injection, schedule: Q04DX003 (ip), vehicle: Klucel (hydroxypropylcellulose) (HPC) 90 % of control | [6] 100 % of control | dose: 50.0 mg/kg/injection, schedule: Q04DX003 (ip), vehicle: Klucel (hydroxypropylcellulose) (HPC) 100 % of control | dose: 100.0 mg/kg/injection, schedule: Q04DX003 (ip), vehicle: Klucel (hydroxypropylcellulose) (HPC) 104 % of control

Cn1cnc([N+](=O)[O-])c1S(=O)(=O)NCN1CCOCC1
inactive: dose: 12.5 mg/kg/injection, schedule: Q01DX009 (ip), vehicle: Klucel (hydroxypropylcellulose) (HPC) 118 % of control | [6] 121 % of control | [7] 116 % of control

CSC(=S)NN=C1CCCCC1
inactive: dose: 0.78 mg/kg/injection, schedule: Q01DX009 (ip), vehicle: saline with Tween-80 99 % of control | dose: 1.56 mg/kg/injection, schedule: Q01DX009 (ip), vehicle: saline with Tween-80 105 % of control | dose: 3.13 mg/kg/injection, schedule: Q01DX009 (ip), vehicle: saline with Tween-80 104 % of control | dose: 6.25 mg/kg/injection, schedule: Q01DX009 (ip), vehicle: saline with Tween-80 102 % of control

CC(NSc1ccccc1[N+](=O)[O-])C(=O)O (centres undefined)
inactive: [11] 98 % of control | [8] 113 % of control

c1cc[c]([Pb]([c]2ccccc2)([c]2ccccc2)[n]2ccc3ccccc32)cc1
inactive: dose: 0.78 mg/kg/injection, schedule: Q01DX009 (ip), vehicle: saline 100 % of control | dose: 1.05 mg/kg/injection, schedule: Q01DX009 (ip), vehicle: Klucel (hydroxypropylcellulose) (HPC) 103 % of control | dose: 1.05 mg/kg/injection, schedule: Q01DX009 (ip), vehicle: other 108 % of control | dose: 2.05 mg/kg/injection, schedule: Q01DX009 (ip), vehicle: saline 115 % of control | dose: 2.08 mg/kg/injection, schedule: Q01DX009 (ip), vehicle: Klucel (hydroxypropylcellulose) (HPC) 94 % of control | dose: 2.08 mg/kg/injection, schedule: Q01DX009 (ip), vehicle: other 108 % of control and 109 % of control | dose: 3.12 mg/kg/injection, schedule: Q01DX009 (ip), vehicle: Klucel (hydroxypropylcellulose) (HPC) 108 % of control | dose: 3.12 mg/kg/injection, schedule: Q01DX009 (ip), vehicle: other 100 % of control | dose: 4.68 mg/kg/injection, schedule: Q01DX009 (ip), vehicle: Klucel (hydroxypropylcellulose) (HPC) 109 % of control

CNC(=O)Oc1ccc2ccccc2c1
inactive: [8] 111 % of control | [9] 113 % of control | [10] 103 % of control

CC1CCC(NC2=NCCO2)C1 (centres undefined)
inactive: dose: 100.0 mg/kg/injection, schedule: Q01DX001 (ip), vehicle: saline with Tween-80 87 % of control | dose: 200.0 mg/kg/injection, schedule: Q01DX001 (ip), vehicle: saline with Tween-80 91 % of control | dose: 400.0 mg/kg/injection, schedule: Q01DX001 (ip), vehicle: saline with Tween-80 95 % of control

COC(=O)[C@@]12OC[C@]34[C@H]([C@@H](O)[C@@H]1O)[C@@]1(C)[C@H](O)C(=O)C=C(C)[C@@H]1C[C@H]3OC(=O)C(OC(C)=O)[C@@H]24 (some centres undefined)
inactive: dose: 15.0 micrograms/kg/injection, schedule: Q01DX009 (ip), vehicle: saline + alcohol 100 % of control | dose: 16.0 micrograms/kg/injection, schedule: Q01DX009 (ip), vehicle: saline + alcohol 100 % of control | dose: 31.0 micrograms/kg/injection, schedule: Q01DX009 (ip), vehicle: saline + alcohol 90 % of control and 100 % of control | dose: 62.0 micrograms/kg/injection, schedule: Q01DX009 (ip), vehicle: saline + alcohol 90 % of control and 104 % of control | dose: 125.0 micrograms/kg/injection, schedule: Q01DX009 (ip), vehicle: saline + alcohol 115 % of control | dose: 250.0 micrograms/kg/injection, schedule: Q01DX009 (ip), vehicle: saline + alcohol 110 % of control | dose: 500.0 micrograms/kg/injection, schedule: Q01DX009 (ip), vehicle: saline + alcohol 120 % of control

CS(=O)(=O)c1ncc2cnccn12
inactive: dose: 100.0 mg/kg/injection, schedule: Q04DX003 (ip), vehicle: water 110 % of control

COc1ccc(NC(=S)N(C)C)cc1
inactive: [8] 100 % of control | [9] 109 % of control | [10] 109 % of control

Cc1[nH]nc(-c2ccon2)c1N=O
inactive: [11] 111 % of control | [8] 113 % of control

C=CCCCCCCCCC(=O)NCC1CC1
inactive: [8] 100 % of control | [9] 90 % of control | [10] 86 % of control
